Results as given in patent US20240245703A1, “TOPICAL APPLICATION OF AGENTS TO REDUCE SUN SENSITIVITY AND IMPROVE TOPICAL PHOTODYNAMIC THERAPY” (Wright State University, priority 2021, published 2024).

How the values were obtained:
[1] = tested on: UVB-induced erythema; experiment: UVB-induced skin erythema (Mexameter) in wild-type and XPA KO mice; assay type: in vivo; conditions: WT and XPA KO mice, 5 kJ/m^2 UVB, 100 μL 500 μM topical immediately after, 4 h; effect most noted in XPA KO
Experimental: Erythema was measured by a Mexameter® device (Courage+Khazaka electronic GmbH, Cologne, Germany) before treatment and after 4 hours of treatment. […] UVB-induced skin inflammation involves many cytokines including interleukin-6 (IL-6) and tumor necrosis factor-alpha (TNFα).
Groups of 6-8 mice underwent erythema measurements with a Mexameter® device before irradiation with various fluences (1.0, 2.5, and 5.0 kJ/m^2) of UVB or no UVB (sham), and four hours later erythema was measured to determine the cutaneous erythema and cytokine responses of UVB irradiation on wild-type vs XPA KO mice. Similarly, triplicate skin biopsies were obtained and mRNA isolated, and quantitative reverse transcription polymerase chain reaction (qRT-PCR) used to quantify mRNA levels of cytokines TNF ? and IL-6. The housekeeping gene GAPDH was used as control. […] The data is shown as the mean±S.E. of fold change in baseline erythema levels. * Denotes statistically significant (P<0.05) differences between UVB- and sham-treated mice. #Denotes statistically significant (P<0.05) differences between XPA KO and wild-type erythema responses.
The data is shown as the mean±S.E. of fold change in baseline erythema levels. * Denotes statistically significant (P<0.05) differences between UVB- and sham-treated mice

[2] = tested on: human skin explants; experiment: PDT-induced MVP release in human skin explants ex vivo; assay type: cell-based; conditions: 100 μL of 5 mM added post-PDT, 4 h
Experimental: (§1) For the data shown in FIG. 14, HaCaT keratinocytes were treated with sham (no treatment), 0.1% ethanol vehicle control (VEH), 100 nM TPA, 100 nM CPAF, 1 mM 5-ALA for 4 hours, or 5-ALA followed by various fluences (2.5-20 J/cm^2) of blue light or blue light alone. Levels of MVPs released into supernatants were measured at 4 hours. […] For the data shown in FIG. 15, human skin explants were treated with sham, 100 μL vehicle (90% ethanol+10% DMSO) (VEH), 1 μM TPA, 1 µM CPAF, 1 mM 5-ALA for 4 hours, blue light or 5-ALA+blue light at 20 J/cm^2. After four hours, duplicate 6-mm punch biopsies were obtained, weighed, and MVPs were measured. The data are the mean±SE from 3-4 separate experiments conducted in duplicate. * Denotes statistically significant (P <0.05) changes from sham values.
(§2) Supernatants were collected at 4 hours and MVP measured. The data are the mean±SE MVP fold change from sham-treated values. For the data shown in FIG. 17, human skin explants were treated as in FIG. 15, with the exception that in some experiments 100 μL of 5 mM IMIP was added post-PDT. MVP were measured in duplicate 6-mm punch biopsies obtained 4 hours post-treatment.

[3] = tested on: UVB-induced erythema; experiment: erythema and temperature response to low-fluence UVB on temple skin of subjects with rosacea; assay type: in vivo, human
Experimental: 30 minutes later, a 1 cm area of previously treated skin was irradiated with a low 300 J/m^2 UVB. Erythema was measured before UVB and at various times post-UVB irradiation in blinded fashion with a mexameter and temperature using a thermal imaging camera. […] Values represent the change in erythema from baseline for each subject at 24 hours post-UVB. […] The boxes represent the area treated with UVB. Insets into the photographs are thermal camera images of the UVB-treated skin, with white areas on the thermal imaging camera denoting increased temperature.

[4] = tested on: human skin explants; experiment: UVB-induced MVP formation in human skin explants ex vivo; assay type: cell-based; conditions: 4 h
From the text: Four hours post-UVB triplicate skin biopsies were obtained and MVP quantified.

[5] = tested on: HaCaT keratinocytes; experiment: PDT (5-ALA + blue light) MVP release in HaCaT keratinocytes; assay type: cell-based, human; parameters: PDT-induced MVP release: dose or concentration left out as unconfirmed; conditions: HaCaT keratinocytes, imipramine added immediately after PDT, supernatants 4 h
Experimental: PDT results in acute cellular destruction and inflammation and photosensitivity, as well as delayed immunosuppression. […] Thus, it was of further interest whether experimental PDT of HaCaT keratinocytes generated MVP in vitro. To that end, HaCaT cells were pretreated with 5-ALA alone, or blue light alone, or a 4 hour incubation of 5-ALA in the dark followed by various fluences of blue light, and MVP were measured in the supernatants at 4 hours post blue light. 100 nM CPAF and TPA were used as positive controls for MVP release.
as §1, §2

[6] = tested on: HaCaT XPA KO; experiment: UVB-induced MVP release in HaCaT XPA deficient cells; assay type: cell-based, human; conditions: HaCaT XPA KO cell line
Experimental: HaCaT cells and HaCaT XPA deficient cells received no treatment (NT) or 1 KJ/m^2, 2.5 KJ/m^2, or 5 KJ/m^2 UVB radiation. After 4 hours, the supernatant was removed and the MVP concentration was measured. The numbers of MVP shown in FIG. 1 were normalized to cell count and NT. Data in FIG. 1 show the mean+S.E. fold change of at least three experiments. Groups were compared using One-Way ANOVA. (P<0.01) was considered statistically significant. * denotes changes between NT and UVB. #denotes changes between HaCaT and HaCaT XPA deficient cells.

## CN(C)CCCN1c2ccccc2CCc2ccccc21 [Imipramine]
[1]
  UVB-induced erythema response: blocked the erythema responses
[2]
  PDT-induced MVP release: blocked PDT-induced MVP release
[3]; one representative rosacea subject, 4% imipramine + UVB versus vehicle + UVB
  skin temperature (thermal imaging) after UVB: less temperature signature
[3]; subjects with rosacea, 0.1 ml 4% imipramine 30 minutes before 300 J/m^2 UVB, 24 hours post-UVB
  erythema response to UVB: blocks the erythema response
[4]; 100 μL 500 μM applied 30 minutes before 2,500 J/m^2 UVB
  UVB-induced MVP formation, pre-treatment: blocks UVB-induced MVP formation
[4]; 100 μL 500 μM applied immediately after 2,500 J/m^2 UVB
  UVB-induced MVP formation, post-treatment: blocks UVB-induced MVP formation
[5]
  PDT-induced MVP release: blocked PDT-induced MVP release
[6]
  increased MVP generation of XPA deficient keratinocytes: blocked by imipramine
